In patent US20140100419A1, “ACTIVE VITAMIN D OR ANALOGS THEREOF FOR USE IN IN VIVO OR IN VITRO FERTILIZATION” (priority 2011, published 2014):

Tests used:
[1] = system: zona pellucida (ZP) of human oocytes; assay: Human sperm-zona pellucida interaction (sperm-egg binding) test; format: cell-based; details: 10 nM JN
Source text: We used the Human sperm-zona pellucida interaction test that is designed to determine the capacity of sperm to interact with the zona pellucida (ZP) of human oocytes and serves thus as a test for evaluating fertility potential of human spermatozoa. The tests provide important diagnostic information about sperm fertilising ability and we used a modified version of the test developed by Liu and Baker (Liu and Baker hum reprod 1999 Defective sperm-zona pellucida interaction: a major cause of failure of fertilization in clinical in-vitro fertilization).
If the oocyte had sperm bound to the ZP from the IVF insemination, these were removed by aspiration using a fine glass pipette with an inner diameter (120 μm) slightly smaller than the oocyte diameter. […] Oocytes with >10 sperm penetrating the ZP were not used. Also degenerate, activated or morphologically abnormal oocytes were not used for the sperm-ZP interaction test. Oocytes were pooled from several patients and used for the test on the same day or kept in the incubator and used within the next 20 days. Between 15-30 oocytes was placed in 1 ml salt solution (storage 2-4 weeks). Salt-stored human oocytes were washed with gamete buffer (COOK) with four changes in 3 hours before they were used for the sperm-egg binding test.
Semen samples from five donors were used. […] The washed sperm pellet was resuspended with sEBSS to a sperm concentration of 2×10^6/ml for the ZP-interaction test. For the assessment of the sperm concentration the samples were diluted following the manufactures instruction and subsequently determined using SP-100 (Chemometec).
For the sperm-ZP interaction tests, either high quality sperm or total sperm sample (2×10^6) in 0.5 ml of medium (+/−1 nM Calcitriol) were incubated with three oocytes for 2 h at 37° C. in 5% CO2 in air. After incubation, the oocytes were transferred to sEBSS and washed by repeated aspiration with a glass pipette (inside diameter approximately 250 μm) to dislodge sperm loosely adhering to the surface of the ZP. Sperm binding to all oocytes was assessed.

human spermatozoa = assay: Sperm motility of washed spermatozoa with or without percoll gradient centrifugation; format: cell-based; details: 10 nM JN
VDR-ap = biological target: T1, VDR-ap (Homo sapiens, UniProt P11473); details: cited from earlier work
T1 sequence (P11473 1-427): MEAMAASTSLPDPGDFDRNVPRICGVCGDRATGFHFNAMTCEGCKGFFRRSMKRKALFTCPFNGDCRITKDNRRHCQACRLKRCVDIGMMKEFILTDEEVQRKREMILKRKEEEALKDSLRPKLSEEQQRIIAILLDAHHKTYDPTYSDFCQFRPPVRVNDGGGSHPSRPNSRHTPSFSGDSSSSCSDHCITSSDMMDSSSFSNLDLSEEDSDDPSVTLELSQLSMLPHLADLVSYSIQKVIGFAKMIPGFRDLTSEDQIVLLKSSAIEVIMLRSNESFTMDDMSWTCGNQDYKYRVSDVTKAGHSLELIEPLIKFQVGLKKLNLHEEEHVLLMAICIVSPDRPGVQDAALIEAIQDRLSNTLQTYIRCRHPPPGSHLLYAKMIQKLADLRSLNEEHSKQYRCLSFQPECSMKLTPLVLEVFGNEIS

mean number of spermatozoa bound to each oocyte ([1]; 1 donor (vehicle mean 37)): 65
difference in sperm-egg binding versus vehicle ([1]; separated by percoll gradient centrifugation): 300%
average improvement of sperm-egg binding versus vehicle ([1]; without percoll gradient centrifugation): 11%
SMILES: C[C@H](CCCC(C)(C)O)[C@H]1CC[C@H]2C3=CC=C4C[C@@H](O)C[C@H](O)[C@@]4(C)[C@@H]3CC[C@]12C [JN, 1α,25(OH)2-lumisterol]
motile sperm (human spermatozoa; 60 minutes, isolated by percoll gradient centrifugation (from 69%)): 72%
sperm motility (mean) (human spermatozoa; 60 minutes, no percoll centrifugation (vehicle mean 34)): 46
change in proportion of motile sperm (human spermatozoa; 24 hours at room temperature, with and without percoll, not substantially different from vehicle): modest decrease
affinity for VDR-ap (VDR-ap): same affinity as 1,25(OH)2D3
